Where a SMILES comes first, the peptide text is derived from it.
Experiments:
Botrytis cinerea = test: MIC of NCR13 and alanine scanning variants, 96-well plate / resazurin assay; format: cell-based; settings: 48 h
Protocol: Antifungal activity of NCR13_AlaV1-V5 was assessed at different concentrations using a 2-fold dilution series of each peptide. Antifungal activity of each peptide was determined spectrophotometrically using the 96-well plate assay. Around 45 μL of each peptide at different concentrations was added to each well of the microtiter plate containing 45 μL of ˜[…] spore suspension. The quantitative fungal growth inhibition was determined by measuring the absorbance at 595 nm using a (Tecan Infinite M200 ProTecan Systems Inc., San Jose, CA) microplate reader after 48 h. The fungal cell viability was determined by the resazurin cell viability assay. After incubation of the pathogen/peptide mixture for 48 h, 10 μl of 0.1% resazurin solution was added to each well. After incubation of the mixture overnight, a change in the color of the resazurin dye from blue to pink or colorless indicated the presence of live fungal cells. The MIC for each peptide was the lowest concentration of each peptide at which no change in blue color occurred.

Botrytis cinerea T-4 = test: MIC determination, 96-well plate assay with resazurin cell viability readout; format: cell-based
Protocol: The fungal strain of Botrytis cinerea T-4 was cultured on V8 agar plates. Fungal spores were harvested by flooding the fungal growth plates with sterile water. The spore suspension was filtered through two layers of Miracloth, centrifuged at 13,600 rpm for 1 min, washed, and re-suspended in low-salt Synthetic Fungal Medium (SFM) (U.S. Pat. No. 6,316,407, incorporated herein by reference in its entirety). The spore suspension was adjusted to the desired spore count using a hemocytometer.
Antifungal activity of NCR13_V7 (SEQ ID NO: 9) and NCR13_V9 (SEQ ID NO: 11) was assessed at different concentrations using a 2-fold dilution series of each peptide. Antifungal activity of each peptide was determined spectrophotometrically using the 96-well plate assay (Kereszt et al., Front. Plant Sci. 9, 1026 (2018)). Around 45 μL of each peptide at different concentrations was added to each well of the microtiter plate containing 45 μL of ˜10^5 spores/ml spore suspension. The quantitative fungal growth inhibition was determined by measuring the absorbance at 595 nm using a (Tecan Infinite M200 ProTecan Systems Inc., San Jose, CA) microplate reader after 48 h. The fungal cell viability was determined by the resazurin cell viability assay (Tiricz et al., Appl. Environ. Microbiol. 79, 6737-6746 (2013);. Balogh et al., Acta Microbiol. Immunol. Hung. 61, 229-239 (2014)). […]

B. cinerea = test: Semi-in planta drop-inoculation antifungal assay on detached N. benthamiana leaves (gray mold); format: in vivo, Botrytis cinerea on Nicotiana benthamiana; settings: B. cinerea spores, peptide 0.75, 1.5, 3 and 6 μM, 48 h

| Compound | MIC (μM) Botrytis cinerea (Botrytis cinerea) | fold higher antifungal activity than NCR13_V7 (Botrytis cinerea T-4; B. cinerea in SFM) [fold] | MIC (μM) in SFM (Botrytis cinerea T-4; B. cinerea, low-salt Synthetic Fungal Medium (SFM), 48 h) [µM] | reduction of lesion size (B. cinerea) |
| --- | --- | --- | --- | --- |
| CC[C@H](C)[C@H](NC(=O)[C@H](CS)NC(=O)[C@H](C)NC(=O)[C@H](C)NC(=O)[C@H](C)NC(=O)[C@H](CCCCN)NC(=O)[C@@H]1CCCN1C(=O)[C@H](CCCCN)NC(=O)[C@H](CCCNC(=N)N)NC(=O)[C@H](CS)NC(=O)[C@H](C)NC(=O)[C@H](Cc1ccccc1)NC(=O)[C@H](CCCCN)NC(=O)[C@H](CCCCN)NC(=O)[C@H](CS)NC(=O)[C@H](CC(=O)O)NC(=O)[C@H](CCCCN)NC(=O)[C@H](CC(=O)O)NC(=O)[C@H](CO)NC(=O)[C@H](CCC(N)=O)NC(=O)[C@H](CS)NC(=O)[C@@H]1CCCN1C(=O)[C@H](CCCCN)NC(=O)[C@@H](N)[C@@H](C)O)C(=O)N[C@@H](CC(N)=O)C(=O)NCC(=O)N[C@@H](Cc1ccccc1)C(=O)N[C@@H](CS)C(=O)N[C@@H](CCCCN)C(=O)N[C@@H](CS)C(=O)N[C@H](C(=O)N[C@@H](CCCNC(=N)N)C(=O)O)C(C)C [NCR13_AlaV4] (H-TKPCQSDKDCKKFACRKPKAAACINGFCKCVR-OH; N-terminus and C-terminus assumed) | Inactive |  |  |  |
| TKPCQSDKDCAAAACRKPKVPKCINGFCKCVR [NCR13_AlaV2] | Inactive |  |  |  |
| N=C(N)NCCC[C@H](NC(=O)[C@H](CS)NC(=O)[C@H](Cc1c[nH]c2ccccc12)NC(=O)[C@H](Cc1ccccc1)NC(=O)[C@H](CCCCN)NC(=O)[C@@H](N)CCCCN)C(=O)N[C@@H](CCCCN)C(=O)N1CCC[C@H]1C(=O)N[C@@H](CCCCN)C(=O)N[C@@H](Cc1c[nH]c2ccccc12)C(=O)N1CCC[C@H]1C(=O)N[C@@H](CCCCN)C(=O)N[C@@H](CS)C(N)=O [NCR13_V9, KKFWCRKPKWPKC-NH2] (H-KKFWCRKPKWPKC-NH2; N-terminus assumed) |  | 2 | 1.5 | reduced the lesion sizes greater than NCR13_V7 |
| TKPCQSDKDCKKFACAAAAVPKCINGFCKCVR [NCR13_AlaV3] | Inactive |  |  |  |

— patent US20260139005A1 (priority 2022, published 2026)
